Experimental data: patent US8853215B2, “Derivatives of N-acyl-N′-phenylpiperazine useful (inter alia) for the prophylaxis or treatment of diabetes” (Takeda Pharmaceutical Company Limited, priority 2009, dated 2014)

Key:
human RBP4 = human RBP4 (Homo sapiens (Human), UniProt P02753); experiment: Binding assay by Retinol-RBP4-TTR ELISA; details: at 10 μM compound; read-out: human RBP4 binding inhibitory activity(% at 10 μM)
Procedure: The action of the compound of the present invention to inhibit binding of RBP4 and retinol and TTR was evaluated using the Retinol-RBP4-TTR ELISA system shown below.
1F: Binding Assay by Retinol-RBP4-TTR ELISA
This ELISA system detects a complex of RBP4 and TTR based on a retinol-dependent binding of RBP4 to TTR.
His-tagged human RBP4 used was prepared in the above-mentioned 1C.
Biotinylate human TTR used was prepared in the above-mentioned 1E.
Streptavidin (20 μl) (10 μg/ml Streptavidin type II (Wako Pure Chemical Industries, Ltd.), 10 mM Tris-HCl (pH 7.5), 10 mM NaCl) was added to a 384 well black plate (Nunc MaxiSorp, Thermo Fisher Scientific Inc.), and the plate was subjected to centrifugation (1000 rpm, 1 min) and coated overnight at 4° C. The plate was washed twice with PBST (PBS, 0.05% Tween 20, 100 μl/well) and blocked with 25% Block Ace (Snow Brand Milk Products Co., Ltd., PBS, 100 μl/well). The plate was subjected to centrifugation (1000 rpm, 1 min) and incubated at room temperature for 4 hr or overnight at 4° C. The plate was washed twice with PBST (PBS, 0.05% Tween 20, 100 μl/well), and biotinylate human TTR (stock solution concentration 1.0 mg/ml) diluted 750-fold with PBST was added at 20 μl/well. The plate was subjected to centrifugation (1000 rpm, 1 min) and stood still at room temperature for 1.5 hr or overnight at 4° C. The plate was washed 3 times with PBST (100 μl/well), and His-tagged human RBP4 (stock solution concentration 0.96 mg/ml) diluted 4000-fold with a reaction buffer (50 mM Tris-HCl, 150 mM NaCl, 0.005% Tween 20, 1 mM DTT, 0.1% BSA) was added at 10 μl/well. The dilution series (8 doses from 10 mM, 200-fold concentration) of the compound was prepared with DMSO, and 1 μl of each was added to a reaction buffer (200 μl) containing retinol (50 nM) (Sigma-Aldrich Co.). A reaction buffer (200 μl) containing retinol and added with DMSO was used as a positive control, and reaction buffer (200 μl) free of retinol and added with DMSO was used as a negative control. Mixed solutions of retinol and the compound were added to the plate at 15 μl/well. The plate was stirred in a platemixer subjected to centrifugation (1000 rpm, 1 min) and reacted at room temperature for 2 hr. A 35% Block Ace solution diluted with the reaction buffer was added at 10 μl/well, centrifuged (1000 rpm, 1 min) and reacted at room temperature for 30 min. The plate was washed 3 times with PBST (100 μl/well) and SuperSignal ELISA Femto Maximum Sensitivity Substrate reagent (PIERCE, Thermo Fisher Scientific Inc.) was added at 30 μl/well, and the luminescence was measured by a platereader (Wallac).
The binding inhibitory activity of the compound was determined by 100×(positive control value-test compound value)/(positive control value-negative control value). The binding activity (IC50) was calculated from the binding inhibitory rate at each compound concentration using a graph drawing software, GraphPad Prism (GraphPad Software Inc.).

RBP4 = RBP4 (Mus musculus (Mouse), UniProt Q00724); experiment: Single administration test in mice, plasma RBP4 by ELISA; type: in vivo; details: male C57BL/6J or ICR mice, 50 mg/kg oral single dose, mean±SD; for RBP4 (% of initial/Control) 0 hr: 0 hr (just before the administration); for RBP4 (% of initial/Control) 4 hr: 4 hr after administration; for RBP4 (% of initial/Control) 7 hr: 7 hr after administration; for RBP4 (% of initial/Control) 24 hr: 24 hr after administration
Procedure: The action of the compounds of the present invention to reduce plasma RBP4 level was evaluated using the animal model shown below.
Male C57BL/6J and ICR mice were purchased from Charles River (Japan) and maintained on a normal diet (CE2, CLAE Japan, Inc.) and tap water. Animals were housed in a temperature-controlled room adjusted to a 12-hour light/12-hour dark cycle beginning at 7:00 and 19:00, respectively. All procedures were conducted according to the experimental animal care use committee of Takeda Pharmaceutical Company.
Male 6-12-week-old C57BL/6J or ICR mice were housed individually and fed CE2 for 4-6 days. After acclimatization, mice were divided into groups based on their body weight. Compounds were suspended in 0.5% (w/v) methylcellulose in water and given orally to mice at a dose of 50 mg/10 mL/kg of body weight (three to five mice per group). Blood samples were obtained from orbital vein with sodium heparin as an anticoagulant at time 0 hr (just before the administration), 4 hr, 7 hr, and 24 hr after the administration, followed by plasma separation by centrifugation. Plasma RBP4 levels were measured by enzyme-linked immunosorbent assay described in the following section.
Plasma samples were analyzed in duplicate for RBP4 by an enzyme-linked immunosorbent assay. Mouse recombinant RBP4 (Takeda Pharmaceutical Company) was used as standards, and the assay range was 0.313-20 ng/ml. Samples were diluted 10,000-fold with phosphate-buffered saline (PBS) (Sigma) containing 10% (w/v) BlockAce (Dainippon Sumitomo Pharma Co., Ltd). Rabbit anti-RBP4 polyclonal antibody (100 μL/well of 50 μg/mL, Hokudo Co, Ltd) was incubated in a 96-well plate (Nalge Nunc International K.K.) for overnight at 4° C. Subsequently, the plates were washed with PBS-T (Wako Pure Chemical Industries, Ltd.) and blocked with PBS containing 25% BlockAce for 1 hr at room temperature. After another washing with PBS-T, samples and standards were applied to the well, and the plates were incubated for 2 hr at room temperature. After a washing the wells, peroxidase-labeled (Dojindo Laboratories) anti-RBP4 (100 μL/well) was added to the wells, and then the plates were incubated for 1 hr at room temperature. After a final washing with PBS-T, substrate solution 3,3,5,5-tetramethylbenzidine (Sigma) was added to the wells, and the plates were placed in the dark for 5-20 min at room temperature. The reaction was stopped with 0.5 M sulphuric acid and the optical density was measured with a spectrophotometer at 450 nm. The changes in plasma RBP4 levels were expressed as % of initial/Control. All data are presented as mean±SD.

Structure (SMILES): CC(C)(C)c1ccccc1N1CCN(C(=O)C(=O)NCC(=O)O)CC1 [Example 87, N-{[4-(2-tert-Butylphenyl)piperazin-1-yl](oxo)acetyl}glycine]
- inhibition at 10 µM (human RBP4): 100%
- RBP4 (% of initial/Control) 0 hr (RBP4): 100.0 ± 13.6 % of initial/Control
- RBP4 (% of initial/Control) 4 hr (RBP4): 36.6 ± 1.0 % of initial/Control
- RBP4 (% of initial/Control) 7 hr (RBP4): 38.1 ± 1.3 % of initial/Control
- RBP4 (% of initial/Control) 24 hr (RBP4): 80.3 ± 18.4 % of initial/Control

Structure (SMILES): CC(C)(C)c1ccccc1N1CCN(C(=O)C(=O)N2CCC(C(=O)O)CC2)CC1 [Example 89, 1-{[4-(2-tert-Butylphenyl)piperazin-1-yl](oxo)acetyl}piperidine-4-carboxylic acid]
- inhibition at 10 µM (human RBP4): 99%
- RBP4 (% of initial/Control) 0 hr (RBP4): 100.0 ± 34.2 % of initial/Control
- RBP4 (% of initial/Control) 4 hr (RBP4): 42.5 ± 6.0 % of initial/Control
- RBP4 (% of initial/Control) 7 hr (RBP4): 46.6 ± 4.3 % of initial/Control
- RBP4 (% of initial/Control) 24 hr (RBP4): 105.9 ± 27.6 % of initial/Control

Structure (SMILES): CC(C)(C)c1ccccc1N1CCN(C(=O)Cn2cnnn2)CC1 [Example 94, 1-(2-tert-Butylphenyl)-4-(1H-tetrazol-1-ylacetyl)piperazine]
- inhibition at 10 µM (human RBP4): 100%
- RBP4 (% of initial/Control) 0 hr (RBP4): 100.0 ± 21.7 % of initial/Control
- RBP4 (% of initial/Control) 4 hr (RBP4): 45.7 ± 0.8 % of initial/Control
- RBP4 (% of initial/Control) 7 hr (RBP4): 58.9 ± 5.1 % of initial/Control
- RBP4 (% of initial/Control) 24 hr (RBP4): 89.2 ± 11.6 % of initial/Control

Structure (SMILES): CC(C)(C)c1ccccc1N1CCN(C(=O)c2ncoc2CCC(=O)O)CC1 [Example 178, 3-(4-{[4-(2-tert-Butylphenyl)piperazin-1-yl]carbonyl}-1,3-oxazol-5-yl)propanoic acid]
- inhibition at 10 µM (human RBP4): 100%
- RBP4 (% of initial/Control) 0 hr (RBP4): 100.0 ± 12.8 % of initial/Control
- RBP4 (% of initial/Control) 4 hr (RBP4): 70.1 ± 1.8 % of initial/Control
- RBP4 (% of initial/Control) 7 hr (RBP4): 67.0 ± 2.6 % of initial/Control
- RBP4 (% of initial/Control) 24 hr (RBP4): 123.3 ± 14.2 % of initial/Control

Structure (SMILES): CC(C)(C)c1cc(Cl)ccc1N1CCN(C(=O)C(=O)O)CC1 [Example 180, [4-(2-tert-Butyl-4-chlorophenyl)piperazin-1-yl](oxo)acetic acid]
- inhibition at 10 µM (human RBP4): 100%
- RBP4 (% of initial/Control) 0 hr (RBP4): 100.0 ± 23.0 % of initial/Control
- RBP4 (% of initial/Control) 4 hr (RBP4): 63.0 ± 2.0 % of initial/Control
- RBP4 (% of initial/Control) 7 hr (RBP4): 61.0 ± 2.2 % of initial/Control
- RBP4 (% of initial/Control) 24 hr (RBP4): 93.0 ± 9.6 % of initial/Control

Structure (SMILES): CC(C)(C)c1ccccc1N1CCN(C(=O)C(=O)N2CCC(C(=O)O)C2)CC1 (stereo not drawn) [Example 191, 1-{[4-(2-tert-Butylphenyl)piperazin-1-yl](oxo)acetyl}pyrrolidine-3-carboxylic acid]
- inhibition at 10 µM (human RBP4): 100%
- RBP4 (% of initial/Control) 0 hr (RBP4): 100.0 ± 8.0 % of initial/Control
- RBP4 (% of initial/Control) 4 hr (RBP4): 65.0 ± 2.2 % of initial/Control
- RBP4 (% of initial/Control) 7 hr (RBP4): 61.2 ± 2.3 % of initial/Control
- RBP4 (% of initial/Control) 24 hr (RBP4): 127.6 ± 40.9 % of initial/Control

Structure (SMILES): CC(C)(C)c1ccccc1N1CCN(C(=O)C(=O)Nc2ccc(CCC(=O)O)cc2)CC1 [Example 197, 3-[4-({[4-(2-tert-Butylphenyl)piperazin-1-yl](oxo)acetyl}amino)phenyl]propanoic acid]
- inhibition at 10 µM (human RBP4): 100%
- RBP4 (% of initial/Control) 0 hr (RBP4): 100.0 ± 22.3 % of initial/Control
- RBP4 (% of initial/Control) 4 hr (RBP4): 72.2 ± 3.6 % of initial/Control
- RBP4 (% of initial/Control) 7 hr (RBP4): 67.0 ± 1.8 % of initial/Control
- RBP4 (% of initial/Control) 24 hr (RBP4): 91.3 ± 15.9 % of initial/Control

Structure (SMILES): CC(C)(C)c1ccccc1N1CCN(C(=O)C(=O)Nc2ccc(OCC(=O)O)cc2)CC1 [Example 201, [4-({[4-(2-tert-Butylphenyl)piperazin-1-yl](oxo)acetyl}amino)phenoxy]acetic acid]
- inhibition at 10 µM (human RBP4): 99%
- RBP4 (% of initial/Control) 0 hr (RBP4): 100.0 ± 9.8 % of initial/Control
- RBP4 (% of initial/Control) 4 hr (RBP4): 65.0 ± 0.7 % of initial/Control
- RBP4 (% of initial/Control) 7 hr (RBP4): 60.3 ± 1.0 % of initial/Control
- RBP4 (% of initial/Control) 24 hr (RBP4): 100.2 ± 13.6 % of initial/Control

Structure (SMILES): CC(C)(C)c1ccccc1N1CCN(C(=O)C(=O)NCCc2ccc(C(=O)O)cc2)CC1 [Example 203, 4-[2-({[4-(2-tert-Butylphenyl)piperazin-1-yl](oxo)acetyl}amino)ethyl]benzoic acid]
- inhibition at 10 µM (human RBP4): 100%
- RBP4 (% of initial/Control) 0 hr (RBP4): 100 ± 2.82 % of initial/Control
- RBP4 (% of initial/Control) 4 hr (RBP4): 43.4 ± 1.8 % of initial/Control
- RBP4 (% of initial/Control) 7 hr (RBP4): 37.2 ± 1.0 % of initial/Control
- RBP4 (% of initial/Control) 24 hr (RBP4): 107.9 ± 15.6 % of initial/Control

Structure (SMILES): Cc1nc(C(=O)N2CCN(c3ccccc3C(C)(C)C)CC2)cn1CC(=O)O [Example 205, (4-{[4-(2-tert-Butylphenyl)piperazin-1-yl]carbonyl}-2-methyl-1H-imidazol-1-yl)acetic acid]
- inhibition at 10 µM (human RBP4): 100%
- RBP4 (% of initial/Control) 0 hr (RBP4): 100.0 ± 18.9 % of initial/Control
- RBP4 (% of initial/Control) 4 hr (RBP4): 66.3 ± 5.7 % of initial/Control
- RBP4 (% of initial/Control) 7 hr (RBP4): 75.0 ± 10.8 % of initial/Control
- RBP4 (% of initial/Control) 24 hr (RBP4): 125.7 ± 20.9 % of initial/Control

Structure (SMILES): CC(C)(C)c1cc(Cl)ccc1N1CCN(C(=O)CC(=O)O)CC1 [Example 207, 3-[4-(2-tert-Butyl-4-chlorophenyl)piperazin-1-yl]-3-oxopropanoic acid]
- inhibition at 10 µM (human RBP4): 100%
- RBP4 (% of initial/Control) 0 hr (RBP4): 100.0 ± 27.4 % of initial/Control
- RBP4 (% of initial/Control) 4 hr (RBP4): 43.1 ± 1.7 % of initial/Control
- RBP4 (% of initial/Control) 7 hr (RBP4): 37.6 ± 0.7 % of initial/Control
- RBP4 (% of initial/Control) 24 hr (RBP4): 52.0 ± 2.8 % of initial/Control

Structure (SMILES): CC(C)(C)c1cc(Cl)ccc1N1CCN(C(=O)c2ccc(OCC(=O)O)cn2)CC1 [Example 210, [(6-{[4-(2-tert-Butyl-4-chlorophenyl)piperazin-1-yl]carbonyl}pyridin-3-yl)oxy]acetic acid]
- inhibition at 10 µM (human RBP4): 99%
- RBP4 (% of initial/Control) 0 hr (RBP4): 100.0 ± 10.5 % of initial/Control
- RBP4 (% of initial/Control) 4 hr (RBP4): 55.3 ± 4.0 % of initial/Control
- RBP4 (% of initial/Control) 7 hr (RBP4): 54.9 ± 8.8 % of initial/Control
- RBP4 (% of initial/Control) 24 hr (RBP4): 97.6 ± 24.5 % of initial/Control
